Experimental data from publication PMC8160438, “A Novel Heptapeptide, GPPGPAG Transfers to the Brain, and Ameliorates Memory Dysfunction and Dendritic Atrophy in Alzheimer’s Disease Model Mice” (Frontiers in Pharmacology, 2021).
No end group written: not given here.

How the values were obtained:
[1] = Cerebral cortex level after oral administration (brain penetration), LC-MS; format: in vivo, mouse
Protocol: Bioavailability and brain penetration of GPPGPAG was performed as previously described ([Yang et al., 2017]). GPPGPAG (500 mg) was dissolved in 750 μL of physiological saline. […] The mice were euthanized at 10, 60, and 180 min after administration. Blood was collected and centrifuged at 10,000 g and 4°C for 10 min to yield plasma. Plasma aliquots (200 μL) were extracted with methanol, dried, sonicated, and resolubilized in 50% methanol (100 μL). The cerebral cortex was also collected after complete saline perfusion for removing blood. The cortex was homogenized, extracted with methanol, dried, sonicated, and resolubilized in 50% methanol (100 µL). To calculate GPPGPAG concentration in the plasma and brain using liquid chromatography-mass spectrometry (LC-MS), a standard curve was generated by analyzing standard amounts of GPPGPAG solubilized in methanol at a dosage of 1, 5, and 10 μg/ml. A Thermo Scientific Accela high-performance LC (HPLC) system, interfaced with an LTQ Orbitrap XL hybrid Fourier Transform Mass Spectrometer (Thermo Fisher Scientific), was used to chemically profile GPPGPAG and the biosamples. The LC analysis was performed on a InertSustain AQ-C18 (4.6 mm ID × 50 mm, 5 μm, GL Sciences, Tokyo, Japan) held at 40°C with a flow rate of 200 μL/min 0.01% formic acid in water (a) and methanol (b) were used in the mobile phase, with the following linear elution gradient: 0–15 min, 10–90% b; 15–18 min, 90–10% b; 18–20 min, 10% b. The following electrospray interface (ESI) parameters were used: spray voltage, 4.5 kV; capillary voltage, […]; tube lens, 150 V; capillary temperature, 330°C; sheath gas flow rate, 50 units; aux gas flow rate, 10 units. […]
[…] (A) Total ion chromatogram (upper) and extracted ion current chromatogram (lower) of standard GPPGPAG (m/z = 552.2753) at 10 μg/ml for quantification of (B) and (C) data. […] In total ion chromatogram (upper) and extracted ion current chromatogram (lower) of m/z = 552.2753, no peaks were detected. […] In total ion chromatogram and extracted ion current chromatogram of m/z = 552.2753, peaks matching the retention time of GPPGPAG were detected. (D) Total ion chromatogram (upper) and extracted ion current chromatogram (lower) of standard GPPGPAG (m/z = 552.2716) at 10 μg/ml for quantification of (E) and (F) data. […] In total ion chromatogram (upper) and extracted ion current chromatogram (lower) of m/z = 552.2716, no peaks were detected. […] In total ion chromatogram and extracted ion current chromatogram of m/z = 552.2716, peaks matching the retention time of GPPGPAG were detected. Quantified amount of GPPGPAG in the plasma (G) and cerebral cortex (H) are shown. *p < 0.05, ****p < 0.0001 vs, saline 10 min, one-way ANOVA with post hoc Bonferroni’s test, mean ± standard error, n = 3 mice.

[2] = Stability in mouse plasma; format: in vitro ADME; conditions: 5 μg/ml, 37°C, 0, 10, 60, 180 min, LC-MS, n = 1
Protocol: For intraventricular administration, GPPGPAG was dissolved in artificial cerebrospinal fluid (ACSF; 130 mM NaCl, 24 mM NaHCO3, 3.5 mM KCl, 1.3 mM Na2HPO4, 2 mM CaCl2, 2 mM MgCl2 6H2O, and 10 mM glucose at pH 7.4) for use. GPPGPAG or ACSF was continuously injected for 28 days into the left ventricle (bregma: −0.2 mm, lateral: 1.0 mm, depth: −3.0 mm) using Alzet Osmotic Pump (1004, DURECT Corporation, CA, United States) and ALZET Brain Infusion Kit 3 (DURECT Corporation). Based on the amount of CSF produced which was 18 μL/h and the pump flow rate of 0.11 μL/h, the peptide in the pump was estimated to be diluted 164 times in the CSF to reach a final concentration 10 nM which was the effective dose in the cultured neuron experiments. Therefore 1.64 µM GPPGPAG was loaded into the pump. Stability of GPPGPAG in saline, mouse plasma and mouse cerebral cortex was confirmed by LC-MS quantification. GPPGPAG was mixed with saline or plasma at 5 μg/ml concentration. Otherwise, GPPGPAG was mixed with cortical lysate at 6.5 μg/g of cortex. After incubation at 37°C for 0, 10, 60, and 180 min, samples were dried up and served to LC-MS. Areas of MS peaks of GPPGPAG were quantified. […]
Stability of GPPGPAG in biological fluids.
(A) GPPGPAG was mixed with saline at 5 μg/ml concentration. (B) GPPGPAG was mixed with mouse plasma at 5 μg/ml concentration. […]

Substance: GPPGPAG [GPPGPAG]
- transferred amount in the brain ([1]; calculated for 10 mg/kg per orally from the cortex level at 500 mg/mouse): 0.598 pmol
- tissue level at time at 3 h ([1]; cerebral cortex, po, 180 min after p.o. administration of 500 mg/mouse, ddY mice, female, LC-MS, mean of n = 3): 2750 ng/g
- detection in the cerebral cortex ([1]; ddY mice, female, 8 weeks, 500 mg/mouse p.o. single dose, cortex after saline perfusion, LC-MS, n = 3): detected 10 min later
- detection in plasma and cerebral cortex ([1]; male mouse, 9 weeks old, p.o. administration, data not shown): similarly detected in the plasma and cerebral cortex
- stability, amount remaining (MS peak area) [2]: gradually reduced after 60-min incubation
